Assays:
IB3-1 cells [1] = assay: Fura-2 microscope calcium measurement in IB3-1 cells; assay type: cell-based, human; conditions: for effect of preincubation on the spiperone-induced Ca2+ increase: inhibitor given before spiperone; for spiperone Ca2+ response after prior addition of the analog: analog added prior to spiperone; for increase of intracellular Ca2+ / Ca2+ release: spiperone analogs, solution not stated
From the text: . A microscope-based fluorescence Ca^2+ measurement system was utilized in this study. First IB3-1 cells grown on a coverglass were bathed in the ECaT Ringer's which was used for the screen. […] In order to ascertain the origin of this sustained increase the experiment was repeated except with Ca^2+-free ECaT Ringer's solution, (See FIG. 8).
Using normal Ringers, a study was undertaken to determine whether the source of the increase in cytoplasmic Ca^2+ was indeed the endoplasmic reticulum (ER). As part of the normal Ca^2+ transit system across the ER, the Ca^2+-ATPase pumps Ca^2+ from the cytosol to the ER uphill against the concentration gradient. Other channels continue to cycle Ca^2+ from ER back to cytosol. Thapsigargin blocks the Ca^2+-ATPase, inhibiting the uphill uptake. […]
Phospholipase C (PLC) is an intracellular enzyme that participates in calcium signaling pathways. […]. There are two major molecules that activate PLC pathways to release Ca^2+ from the ER. One is the G-protein coupled receptors. The second is the protein tyrosine kinase […]. […]. […] (FIG. 12G is the summary data of genistein treatment.) Lavendustin A is another protein tyrosine kinase inhibitor. […].
(§1) Cells were seeded on the collagen-coated cover glass for 48 h. Cell Ca^2+ was measured with a dual excitation wavelength microscope system. Fura-2 fluorescence was excited at 340 nm and 380 nm with xenon light. Fluorescence was measured at 510 nm emission wavelength. Data was processed and analyzed using IPLab 4.0 software. Fluorescence data of each experiment were normalized to the individual basal fluorescence value ΔF/F0=(F−F0)/F0 to bring all the response curves to the same pretreatment starting point.

Calu-3 cells [2] = assay: Short-circuit current measurement (Cl- secretion), Calu-3 monolayers; assay type: cell-based, human; conditions: for effect of channel blocker on spiperone-induced sustained Cl- release / effect of channel blocker on spiperone-induced transient Cl-: amiloride present; for Cl- current (short circuit current): normal Ringer's, Na+ absorption blocked with amiloride
Method: (§2) An experiment was carried out to establish that the spiperone-induced increase of Ca^2+ would produce an increase in Cl^− transport relevant to CF, and that it would do so in CF relevant epithelial cells. Calu-3 and CFBE41o-cell monolayers were cultured on permeable filter support and “short circuit current” measurements were performed to evaluate the current produced by Cl^− in these cells.
(§3) Na^+ is a positively charged ion and its absorption would interfere with the short circuit measurement for Cl^− secretion. Therefore, in normal Ringer's solution, Na^+ absorption across the cell membrane was blocked with amiloride. Cell monolayers were then exposed to the two relevant compounds: niflumic acid (NFA), which is a non-selective CaCCs blocker or to CFTRinh-172, which is a specific CFTR blocker.
(§4) Calu-3 and CFBE41o-cells were cultured on Snapwell inserts until they formed a tight monolayer as monitored by measuring the transepithelial resistance. The bottom of the monolayer was taken out, mounted on the Ussing chamber and buffered by the testing solutions. The short-circuit current was measured by a VCC MC6 multichannel voltage/current clamp (Physiologic Instruments, San Diego, Calif.). Data were recorded and analyzed by Acquire and Analyze software.

[3] = 24 weeks of treatment, phase III trial, inhaled; cited from earlier work
CFBE41o- cells [4] = assay: Short-circuit current measurement (Cl- secretion), CFBE41o- monolayers; assay type: cell-based, human; conditions: for Cl- secretion (short circuit current): normal Ringer's, amiloride
Method: as §2, §3, §4

IB3-1 cells [5] = assay: Compound screening for calcium enhancers (Fura-2 fluorescence plate reader)
From the text: Thus for the ECaT Ringers, we eliminated Na^+ from the solution and replaced it completely by N-methyl-D-glucamine (NMDG) to maintain the solution osmolality to favor Ca^2+ for entry through the P2X receptor. We were searching for compounds that activate the P2X receptor channel or other Ca^2+ entry channels, as well as compounds that bind to membrane or cellular proteins which are involved in intracellular Ca^2+ regulation.
Compounds were selected as potential hits if their change of fluorescence ratio fell within 3 SD of those obtained for zinc (ratio), and larger than that recorded for DMSO (ratio) +3SD. The average Z factor of all 25 plates is 0.6 for the 15 min detection. Hits were solely based on the change in the fluorescence ratio. Any compound that was highly auto-fluorescent was not considered further.
We further evaluated 37 hits manually using the Fluorescence Plate Reader system. […] Following this initial vetting process, the half-maximal effective concentration (EC50) was determined of each of the remaining 19 molecules. […] Compound Library: Library MSSP (Microsource Discovery Inc) was our source for compounds for the primary screening. The compounds were known bioactive compounds and natural products and their derivatives. The library contained 2,000 compounds on twenty-five 96-well plates, with 80 compounds tested per plate. In the master plates, each compound was suspended in DMSO at a concentration of 10 mM. A set of 96-well plates of the library in a concentration of 2 mM in DMSO was made prior to the screening.
Screening Procedure: The screening was performed by the Johns Hopkins University High Throughput Biology Center Chemcore. […] The fluorescence ratio was measured in ECaT Ringer's solution by a Tecan Safire Fluorescence Plate Reader. […] The fluorescence ratio was measured again immediately after adding the compounds. The final fluorescence detection was done 15 min after the second detection in order to find compounds which stimulate the sustained Ca^2+ increase.

5-HT2 receptor = 5-HT2 receptor (Homo sapiens, UniProt P28223); conditions: antagonists; cited from earlier work
Chain of 5-HT2 receptor (P28223 whole entry): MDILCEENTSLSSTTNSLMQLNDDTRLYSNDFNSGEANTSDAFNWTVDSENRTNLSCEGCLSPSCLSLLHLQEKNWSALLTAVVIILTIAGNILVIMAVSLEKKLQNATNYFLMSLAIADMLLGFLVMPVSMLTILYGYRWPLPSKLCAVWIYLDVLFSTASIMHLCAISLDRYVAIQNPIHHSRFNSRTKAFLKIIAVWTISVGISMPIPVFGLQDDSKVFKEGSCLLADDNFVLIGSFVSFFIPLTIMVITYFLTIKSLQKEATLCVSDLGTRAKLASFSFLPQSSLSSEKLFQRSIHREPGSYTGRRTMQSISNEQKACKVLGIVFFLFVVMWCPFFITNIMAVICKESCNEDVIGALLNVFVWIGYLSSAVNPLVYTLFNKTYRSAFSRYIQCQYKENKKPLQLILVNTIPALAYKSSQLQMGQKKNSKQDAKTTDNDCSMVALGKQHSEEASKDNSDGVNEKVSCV

dopamine D2 receptor = dopamine D2 receptor (Homo sapiens, UniProt P14416); conditions: cited from earlier work
Chain of dopamine D2 receptor (P14416 whole entry, species assumed): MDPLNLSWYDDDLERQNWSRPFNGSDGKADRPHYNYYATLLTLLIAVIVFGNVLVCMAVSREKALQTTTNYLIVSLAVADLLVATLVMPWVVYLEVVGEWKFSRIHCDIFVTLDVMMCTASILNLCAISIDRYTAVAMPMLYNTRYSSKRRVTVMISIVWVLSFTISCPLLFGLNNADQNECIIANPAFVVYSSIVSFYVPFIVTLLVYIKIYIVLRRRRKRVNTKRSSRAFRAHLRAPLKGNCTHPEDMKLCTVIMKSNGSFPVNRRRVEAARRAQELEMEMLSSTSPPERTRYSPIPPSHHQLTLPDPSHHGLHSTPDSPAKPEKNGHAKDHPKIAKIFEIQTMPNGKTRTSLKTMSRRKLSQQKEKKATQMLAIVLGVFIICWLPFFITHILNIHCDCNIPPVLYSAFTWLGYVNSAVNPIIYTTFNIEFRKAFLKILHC

5-HT receptor = conditions: canine tracheal epithelia, another study; cited from earlier work
Calu-3 cells [6] = assay: Fura-2 microscope calcium measurement in Calu-3 cells; assay type: cell-based, human; conditions: Calu-3 non-CF; Ca2+-free Ringers
Method: as §1

CFBE41o- cells [7] = assay: Fura-2 microscope calcium measurement in CFBE41o- cells; assay type: cell-based, human; conditions: CFBE41o- CF; Ca2+-free Ringers
Method: as §1

NHBE = assay: Fura-2 microscope calcium measurement in NHBE primary cells; assay type: cell-based, human; conditions: NHBE primary culture; Ca2+-free Ringers
Method: as §1

[8] = tested on: nasal epithelia of wild-type (C57B1/6) mice; assay: Mouse nasal potential difference, wild-type C57B1/6 mice; conditions: after elimination of mucosal Cl-
From the text: Animals: The studies conducted were approved by the Johns Hopkins University Animal Care and Use Committee. […] Nasal Potential Difference (NPD): All mice were anesthetized with an IP injection of a ketamine and xylazine mixture (100 mcg/10 mcg per gram of body weight). […] Briefly, a high impedance voltmeter (World Precision Instruments, Sarasota, Fla.) was connected by silver-chloride pellet electrodes to an exploring nasal bridge and a reference subcutaneous bridge. The nasal bridge, a single polyethylene tube (PE10, 0.28 mm ID, Clay-Adams, B D, Sparks, Md.) was pulled to one-half its original diameter and cut at a 45 degree angle. The tubing was marked and inserted 5 mm from the tip of the nare. A paper tape flag indicated position and orientation of the tip. The subcutaneous bridge was a 25 GA Butterfly® (Abbott, Chicago, Ill.) needle containing Ringer's solution inserted subcutaneously in the right abdominal wall. Each solution was warmed to 37° C. and perfused to the nare for at least 3 minutes at 5 micro liters per minute using a perfusion pump. Following the procedure, the oral cavity was gently suctioned of perfusate and the mice were recovered to their cages. Voltmeter data (mV) was recorded by a PowerLab A/D converter connected to a PC running Chart software at 20 samples per second (AD Instruments, Colorado Springs, Colo.). […]

[9] = tested on: nasal epithelium of CFKO mice; assay: Mouse nasal potential difference, CF (double transgenic CFKO) mice
From the text: In order to allow for later hyperpolarization from chloride secretion, their nasal epithelia were perfused with baseline Ringers with amiloride added to block the epithelial Na^+ channel. For the next perfusion, the Cl^− was removed by substituting Na^+ gluconate in the baseline Ringer's solution (FIG. 8), then removed Cl^− from the mucosa by perfusing the nare with that Ringer's.
Nasal Potential Difference (NPD): All mice were anesthetized with an IP injection of a ketamine and xylazine mixture (100 mcg/10 mcg per gram of body weight). […] Briefly, a high impedance voltmeter (World Precision Instruments, Sarasota, Fla.) was connected by silver-chloride pellet electrodes to an exploring nasal bridge and a reference subcutaneous bridge. The nasal bridge, a single polyethylene tube (PE10, 0.28 mm ID, Clay-Adams, B D, Sparks, Md.) was pulled to one-half its original diameter and cut at a 45 degree angle. The tubing was marked and inserted 5 mm from the tip of the nare. A paper tape flag indicated position and orientation of the tip. The subcutaneous bridge was a 25 GA Butterfly® (Abbott, Chicago, Ill.) needle containing Ringer's solution inserted subcutaneously in the right abdominal wall. Each solution was warmed to 37° C. and perfused to the nare for at least 3 minutes at 5 micro liters per minute using a perfusion pump. Following the procedure, the oral cavity was gently suctioned of perfusate and the mice were recovered to their cages. Voltmeter data (mV) was recorded by a PowerLab A/D converter connected to a PC running Chart software at 20 samples per second (AD Instruments, Colorado Springs, Colo.). A minimum of 400 data points (˜20 seconds) were used to calculate the mean voltage values.

NCCOB(c1ccccc1)c1ccccc1 [2APB]
effect on the spiperone induced Ca2+ release from ER (IB3-1 cells [1]; 100 μM, 30 minutes incubation, data not shown): totally blocked

O=C(O)c1ccc(/C=C2\SC(=S)N(c3cccc(C(F)(F)F)c3)C2=O)cc1 [CFTRinh-172]
effect of channel blocker on spiperone-induced sustained Cl- release (Calu-3 cells [2]): totally blocked
effect of channel blocker on spiperone-induced transient Cl- (Calu-3 cells [2]): reduced

Nc1ccn([C@H]2C[C@H](O)[C@@H](COP(=O)(O)OP(=O)(O)OP(=O)(O)OP(=O)(O)OC[C@H]3O[C@@H](n4ccc(=O)[nH]c4=O)[C@H](O)[C@@H]3O)O2)c(=O)n1 [Denufosol, denufosol]
improvement in lung function [3]: 2.5%

O=C(O)c1cccnc1Nc1cccc(C(F)(F)F)c1 [NFA, niflumic acid]
effect of channel blocker on spiperone-induced sustained Cl- release (Calu-3 cells [2]): totally blocked
effect of channel blocker on spiperone-induced transient Cl- (Calu-3 cells [2]): reduced
effect of CaCC blocker on spiperone's effect on Cl- secretion (CFBE41o- cells [4]): reduced significantly

Cc1ccc(C(=O)Nc2ccc(S(=O)(=O)O)c3cc(S(=O)(=O)O)cc(S(=O)(=O)O)c23)cc1NC(=O)c1cccc(NC(=O)Nc2cccc(C(=O)Nc3cc(C(=O)Nc4ccc(S(=O)(=O)O)c5cc(S(=O)(=O)O)cc(S(=O)(=O)O)c45)ccc3C)c2)c1 [Suramin, suramin]
effect of preincubation on the spiperone-induced Ca2+ increase (IB3-1 cells [1]): did not reduce

COc1ccc2c(c1)CC[C@@H]1[C@@H]2CC[C@]2(C)[C@@H](NCCCCCCN3C(=O)C=CC3=O)CC[C@@H]12 [U73122]
effect of preincubation on the spiperone-induced Ca2+ increase (IB3-1 cells [1]): diminished

COc1ccc2c(c1)CC[C@@H]1[C@@H]2CC[C@]2(C)C(NCCCCCCN3C(=O)CCC3=O)CC[C@@H]12 (stereo partly shown) [U73433]
effect of preincubation on the spiperone-induced Ca2+ increase (IB3-1 cells [1]): did not

[Zn] [Zinc, zinc]
increase in cytoplasmic Ca2+ (change in fluorescence ratio) (IB3-1 cells [5]; ECaT Ringer's, plate reader): long lasting increase in cytoplasmic Ca^2+

O=c1c(-c2ccc(O)cc2)coc2cc(O)cc(O)c12 [genistein]
effect of preincubation on the spiperone-induced Ca2+ increase (IB3-1 cells [1]): partially blocked

O=C(CCCN1CCC(O)(c2ccc(Cl)cc2)CC1)c1ccc(F)cc1 [haloperidol]
spiperone Ca2+ response after prior addition of the analog (IB3-1 cells [1]; Ca2+-free normal Ringer's): spiperone was still able to stimulate a transient increase in Ca^2+
increase of intracellular Ca2+ / Ca2+ release (IB3-1 cells [1]): did not release Ca^2+
effect on spiperone-stimulated transepithelial Cl- currents (Calu-3 cells [2]; analog given before spiperone): did not prevent spiperone from stimulating transepithelial Cl^− currents
Cl- current (short circuit current) (Calu-3 cells [2]): did not stimulate the Cl^− current

O=C(c1ccc(F)cc1)C1CCN(CCn2c(=O)[nH]c3ccccc3c2=O)CC1 [ketanserin]
spiperone Ca2+ response after prior addition of the analog (IB3-1 cells [1]; Ca2+-free normal Ringer's): spiperone was still able to stimulate a transient increase in Ca^2+
increase of intracellular Ca2+ / Ca2+ release (IB3-1 cells [1]): did not increase intracellular Ca^2+
affinity for the 5-HT2 receptor (5-HT2 receptor): high affinity
antagonism of the dopamine receptor (dopamine D2 receptor): very weakly antagonistic
effect on 5-HT effects (inhibited Na+ absorption, stimulated Cl- secretion) (5-HT receptor): blocked those effects

O=C(O)c1cc(N(Cc2ccccc2O)Cc2cc(O)ccc2O)ccc1O [lavendustin A]
effect on the increase in Ca2+ induced by spiperone (IB3-1 cells [1]; 10 μM, data not shown): significantly diminished

O=C(CCCN1CCC2(CC1)C(=O)NCN2c1ccccc1)c1ccc(F)cc1 [spiperone]
change in cytoplasmic Ca2+ (IB3-1 cells [1]; Ca2+-free ECaT Ringer's): only a transient increase in cytoplasmic Ca^2+
change in cytoplasmic Ca2+ (IB3-1 cells [1]; Ca2+-free normal Ringer's): only a transient increase in Ca^2+
change in cytoplasmic Ca2+ (IB3-1 cells [1]; ECaT Ringer's): sustained increase in Ca^2+
cytosolic Ca2+ response to thapsigargin after spiperone (IB3-1 cells [1]; cells treated with spiperone before thapsigargin, normal Ringers): no increase in cytosolic Ca^2+
change in cytoplasmic Ca2+ (IB3-1 cells [1]; normal Ringer's): only a transient increase in Ca^2+
change in Ca2+ (Calu-3 cells [6]): transient increase in Ca^2+
change in Ca2+ (CFBE41o- cells [7]): transient increase in Ca^2+
change in Ca2+ (NHBE): transient increase in Ca^2+
Cl- secretion (Calu-3 cells [2]; 20 μM, monolayers): stimulated Cl^− secretion
amount of spiperone required to induce Cl- secretion (Calu-3 cells [2]; "our study", airway epithelial cells): at least 1 μmol
Cl- current (short circuit current) (Calu-3 cells [2]): a transient and then a sustained Cl^− current
Cl- secretion (CFBE41o- cells [4]; 20 μM, monolayers): stimulated Cl^− secretion
Cl- secretion (short circuit current) (CFBE41o- cells [4]): only a transient Cl^− secretion
Cl- transit on spiperone applied after thapsigargin (CFBE41o- cells [4]; subsequent to thapsigargin): failed to stimulate any additional Cl^− transit
affinity for the 5-HT2 receptor (5-HT2 receptor): high affinity
affinity for the dopamine D2 receptor (dopamine D2 receptor; antagonists): high affinity
nasal potential difference / Cl- conductance [8]: did not induce any further hyperpolarization
nasal potential difference / Cl- conductance ([9]; 1 μM in Zero Cl- baseline Ringer's, after amiloride, nasal perfusion): hyperpolarized the mouse nasal potential significantly
nasal potential difference ([9]; 1 μM, after 19 min of sustained perfusion): remained significantly hyperpolarized
nasal potential difference / Cl- conductance ([9]; subsequent increase to 20 μM): did not boost Cl^− conductance
spiperone concentrations at which the Ca2+ stimulation is reduced (IB3-1 cells [5]; higher concentrations, inhibition): > 50 µM
spiperone concentrations that stimulate cytoplasmic Ca2+ (IB3-1 cells [5]; lower concentrations, activation): less than 50 μM

C/C=C(/C)C(=O)O[C@H]1C(C)=C2[C@H]([C@@H]1OC(=O)CCCCCCC)[C@@](C)(OC(C)=O)C[C@H](OC(=O)CCC)[C@@]1(O)[C@H]2OC(=O)[C@@]1(C)O [thapsigargin]
change in cytoplasmic Ca2+ (IB3-1 cells [1]; normal Ringer's): net increase in Ca^2+ in the cytosol
Cl- secretion (short circuit current) (CFBE41o- cells [4]): transient increase in Cl^− secretion

Reference: patent US8664237B2 (The Johns Hopkins University, priority 2008, dated 2014)
